The results in this text go back to patent publication US7183075B2, “Purified and isolated potassium-chloride cotransporter nucleic acids and polypeptides and therapeutic and screening methods using same” (Vanderbilt University, priority 2000, dated 2007).

The target in the test is T1, rabKCC1 (Oryctolagus cuniculus, UniProt Q28677).
T1 construct: a full-length rabbit KCC1 cDNA was subcloned into pGEMHE; expressed in transfected cells; host or cells: Xenopus laevis oocytes injected with cRNA
T1 sequence (Q28677 1-1085): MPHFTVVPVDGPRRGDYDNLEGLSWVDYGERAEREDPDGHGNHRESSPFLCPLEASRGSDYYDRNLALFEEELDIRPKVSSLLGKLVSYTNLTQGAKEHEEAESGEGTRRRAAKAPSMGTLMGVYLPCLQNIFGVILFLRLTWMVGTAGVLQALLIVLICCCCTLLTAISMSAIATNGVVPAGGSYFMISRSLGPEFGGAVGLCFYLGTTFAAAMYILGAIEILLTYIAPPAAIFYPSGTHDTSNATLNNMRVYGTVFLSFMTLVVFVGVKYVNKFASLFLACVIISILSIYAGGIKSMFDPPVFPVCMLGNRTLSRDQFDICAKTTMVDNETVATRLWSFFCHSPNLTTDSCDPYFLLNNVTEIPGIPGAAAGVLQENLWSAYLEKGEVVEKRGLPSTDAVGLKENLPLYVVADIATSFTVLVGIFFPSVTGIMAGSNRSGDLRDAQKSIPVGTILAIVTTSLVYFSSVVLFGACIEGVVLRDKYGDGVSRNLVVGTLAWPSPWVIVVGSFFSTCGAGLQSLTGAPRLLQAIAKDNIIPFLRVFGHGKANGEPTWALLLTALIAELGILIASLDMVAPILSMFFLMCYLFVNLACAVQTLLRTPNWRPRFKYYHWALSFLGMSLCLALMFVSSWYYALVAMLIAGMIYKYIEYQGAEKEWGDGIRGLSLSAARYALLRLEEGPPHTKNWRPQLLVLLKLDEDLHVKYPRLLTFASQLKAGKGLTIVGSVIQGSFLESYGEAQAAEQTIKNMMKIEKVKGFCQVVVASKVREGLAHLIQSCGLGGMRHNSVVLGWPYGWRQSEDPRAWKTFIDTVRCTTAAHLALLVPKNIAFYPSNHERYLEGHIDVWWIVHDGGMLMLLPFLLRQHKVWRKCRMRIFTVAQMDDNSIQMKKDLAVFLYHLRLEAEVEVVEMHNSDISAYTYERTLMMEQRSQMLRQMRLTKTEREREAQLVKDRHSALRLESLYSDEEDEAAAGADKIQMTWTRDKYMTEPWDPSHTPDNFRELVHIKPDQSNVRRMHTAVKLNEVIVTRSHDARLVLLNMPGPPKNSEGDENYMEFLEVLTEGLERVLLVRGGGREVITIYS
The test can be described thus: 86Rb+ uptake (K+-Cl- cotransport) in Xenopus oocytes injected with rabKCC1 cRNA. The settings on record: for KCC1 function remaining: 100 μM DIDS; for KCC1 function (86Rb+ uptake, % of control): 2 mM diuretic; for effect on activation of KCC1 by cell swelling: calyculin A 100 nM, okadaic acid 1 nM, cypermethrin 100 pM. Type of test: cell-based, rabbit. As for the experimental part:
On the next day, defolliculated stage V–VI oocytes were injected with 50 nl of water or a solution containing cRNA at a concentration of 0.25–0.5 μg/μl (25 ng/oocyte). […] The incubation medium was changed every 24 hours.
For functional comparison with mKCC4, a full-length rabbit KCC1 cDNA was subcloned into pGEMHE. […] To prepare a template for cRNA, the rabbit KCC1 and […] cDNAs were linearized at the 3′-end using NheI, and cRNA was transcribed in vitro using the T7 RNA polymerase and the mMESSAGE mMACHINE kit (Ambion, Inc. of Austin, Tex.). Transcription product integrity was confirmed on agarose gels, and concentration was determined by absorbance reading at 260 nm (DU 640 available from Beckman of Fullerton, Calif.).
K^+—Cl^− cotransport was assessed by measuring tracer ^86Rb^+ uptake (NEN® Life Science Products of Boston, Mass.) in experimental groups of at least 15 oocytes. […] Isotonic conditions were generated by supplementing the same solutions with 3.5 g/100 ml sucrose to reach isosmolar conditions for oocytes (˜210 mOsm/kg). Ouabain was added to prevent ^86Rb^+ uptake via the Na^+—K^+-ATPase.
All uptake assays were performed at 32° C. At the end of the uptake period, oocytes were washed five times in ice-cold uptake solution without isotope to remove extracellular fluid tracer. Oocytes were dissolved in 10% SDS, and tracer activity was determined for each oocyte by β-scintillation counting.
To determine the ion transport kinetics of KCC4 and KCC1, ^86Rb^+ uptake experiments were performed in variable concentrations of K^+ and Cl^−. The sensitivity for several inhibitors was assessed by exposing groups of oocytes to the inhibitors at concentrations varying from […] to 2 mM. For these experiments, the desired concentration of the inhibitor was present during both the incubation and uptake periods, except when noted.

[1] abbreviates: KCC1, counterion fixed at 50 mM, hypotonic.
[2] abbreviates: KCC1, counterion fixed at 50 mM, hypotonic, read-out: apparent Km for extracellular ion.
The mark [3] stands for this setting: 2 mM extracellular K+, hypotonic.
Where [4] appears, read: 50 mM extracellular K+, hypotonic.

Like-named read-outs stand apart in the source and are kept apart here.

One may read the Hill coefficient as a measure of the steepness of the concentration-response curve. As usually defined, the Km is the concentration of substrate that gives half-maximal velocity.

Take `[Ba+2].[Cl-].[Cl-]` [BaCl2]: the “KCC1 function, % of control” value (10 mM BaCl2 in hypotonic uptake medium) came out at 79±4.2%.
As to `Cl` [Chloride], the Hill coefficient (KCC1) is given as 1.3±0.5. For the same molecule, the “apparent Vmax for extracellular ion” value under setting [1] was 14,930±2,822 pmol×oocyte^−1×hour^−1. Moreover, the Km by setting is: under setting [2], 17.2 ± 8.3 mM; (KCC1, read-out: Chloride Km) 17.2 mM.
With `O=S(=O)(O)c1cc(N=C=S)ccc1C=Cc1ccc(N=C=S)cc1S(=O)(=O)O` [DIDS], the KCC1 function remaining runs as follows: under setting [3], 85±6%; under setting [4], 13±2%.
On to `CCCCC1(C2CCCC2)Cc2cc(OCC(=O)O)c(Cl)c(Cl)c2C1=O` (centres unmarked) [DIOA], for which the “effect on KCC1-induced 86Rb+ uptake” value (100 μM DIOA, hypotonic) is listed as “inhibition”.
For `CCN1C(=O)C=CC1=O` [NEM, N-ethylmaleimide], the “reduction of KCC1-induced 86Rb+ uptake” value (1 mM NEM, hypotonic) was determined as 55%. For the setting “1 mM NEM, isotonic”, the “fold activation of KCC1” value stood at 2.6 fold. In addition, under “KCC1, 1 mM NEM, isotonic”, the “86Rb+ uptake in NEM-treated group” value worked out at 319±76 pmol×oocyte^−1×hour^−1.
In turn, `[K+]` [Potassium] came in with a Hill coefficient (KCC1) of 1.04±0.13. Under setting [1], the “apparent Vmax for extracellular ion” value is given as 39,540±2,199 pmol×oocyte^−1×hour^−1. Moreover, the Km stood at 25.5 ± 3.2 mM under setting [2] and 25.5 mM (KCC1, read-out: Potassium Km).
On to `CCCCNc1cc(C(=O)O)cc(S(N)(=O)=O)c1Oc1ccccc1` [bumetanide], for which the “KCC1 function (86Rb+ uptake, % of control)” value is reported as 51±12% under setting [3] and 19±7% under setting [4]. Under “KCC1, 10 mM extracellular K+, read-out: apparent half-maximal inhibition (K=0.5) of Cl−-dependent 86Rb+ uptake”, the IC50 was roughly 180 µM.
With `COC[C@@H]([C@H](O)[C@H](O)C(=O)NCC[C@H](C)c1nc(/C=C/C[C@@H]2O[C@]3(C[C@@H](O)[C@@H]2C)O[C@H]([C@H](C[C@H](O)[C@H](C)[C@H](O)[C@H](C)/C=C(C)/C(C)=C/C=C/C(C)=C\C#N)OC)[C@H](OP(=O)(O)O)C3(C)C)co1)N(C)C` [calyculin A], the “effect on activation of KCC1 by cell swelling” value (“effect on activation of KCC1” for short) (hypotonic) is on record as “completely prevents the activation”.
On to `CC1(C)C(C=C(Cl)Cl)C1C(=O)OC(C#N)c1cccc(Oc2ccccc2)c1` (centres unmarked) [cypermethrin], for which the “effect on activation of KCC1” value (hypotonic) is “neither okadaic acid, nor cypermethrin prevented this activation”.
For the molecule `NS(=O)(=O)c1cc(C(=O)O)c(NCc2ccco2)cc1Cl` [furosemide], the “KCC1 function (86Rb+ uptake, % of control)” value under setting [3] amounted to 9±2% and the “KCC1 function (86Rb+ uptake, % of control)” value under setting [4] amounted to 18±8%.
As for `C=C1[C@@H](O)[C@@H]2O[C@]3(CC[C@H](/C=C/[C@@H](C)[C@@H]4CC(C)=C[C@@]5(O[C@H](C[C@@](C)(O)C(=O)O)CC[C@H]5O)O4)O3)CC[C@H]2O[C@@H]1[C@@H](O)C[C@H](C)[C@H]1O[C@@]2(CCCCO2)CC[C@H]1C` [okadaic acid], the “effect on activation of KCC1” value (hypotonic) is given as “neither okadaic acid, nor cypermethrin prevented this activation”.
For `NS(=O)(=O)c1cc2c(cc1Cl)NC(C(Cl)Cl)NS2(=O)=O` (centres unmarked) [trichlormethiazide], the “KCC1 function (86Rb+ uptake, % of control)” value turned out to be 64±4% under setting [3] and 74±8% under setting [4].
For HgCl2 [Hg—Cl2], where the note is “50 μM HgCl2, hypotonic”, the “response of KCC1 to mercury” value is listed as “resistant”.
